In US11129867B2, “Method of treating cancer cells” (priority 2017, dated 2021):
Where two headings read alike, the source gives them in different places. Where no end group is shown, it is not given here.

Experiments:
Ca922 cells [1] = assay: WST-8 cell viability assay, Ca922; assay type: cell-based, human
Experimental: (§1) Human oral squamous cell carcinoma (OSCC) cell lines, Ca922, OSC20, OECM-1, OC3, CGHNC9, HSC3, plus A549, MDA-MB-231, MCF7, Huh7, HeLa-Kyoto, Detroit 562, H520, H2170, and 293T cells were used in this study. Ca922, CGHNC9, MDA-MB-231, MCF7, Huh7, HeLa-Kyoto, Detroit 562, and 293T cells were all cultured in high-glucose Dulbecco's Modified Eagle Medium (DMEM). OSC20 and HSC3 cells were cultured in Dulbecco's Modified of Eagle's Medium/Ham's F-12 50/50 Mix (1:1). OECM-1, A549, H520, and H2170 cells were grown in RPMI-1640 medium. All culture media were supplemented with 10% fetal bovine serum (FBS) and 1% penicillin-streptomycin. OC3 cells were cultured in 1:1 DMEM/KSFM (keratinocyte serum-free medium) with supplied supplement of Bovine pituitary extract (BPE) and epidermal growth factor (EGF) followed by instruction. All the cells in this study were maintained at 37° C. in humidified atmosphere containing 5% CO2.
(§2) WST-8 [2-(2-methoxy-4-nitrophenyl)-3-(4-nitrophenyl)-5-(2,4-disulfophenyl)-2H-tetrazolium, monosodium salt] cell viability assay
(§3) Cells were seeded into 96 well plate and incubated at 37° C. overnight. Endpoint measures of TMR-GBP or drugs were performed by water soluble tetrazolium salt (WST-8)-based colorimetric assay in triplicate which measures the metabolic conversion of WST-8 into formazan by mitochondrial dehydrogenases present in viable cells. The amount of formazan produced is proportional to the number of live cells and is expressed as cellular viability. When time was up, media were removed and supplemented with WST-8 cell viability reagent-contained cell culture medium (1:10) and incubated at 37° C. for 2 hours. Besides, three wells with WST-8-dissolved medium only (without cells) were reserved as a background control. Cell viability was measured at the absorbance of 450/655 nm wavelength by ELISA reader.

H2170 = assay: WST-8 cell viability assay, H2170; assay type: cell-based
Experimental: as §1, §2, §3

Ca922 cells [2] = assay: Time-lapse live cell imaging, Ca922; assay type: cell-based; settings: Ca922, 12.5 μM, exposed to 532 nm, 488 nm, 405 nm and brightfield, after 20 hours, FIG. 2
Experimental: Ca922 cells were grown on 35 mm culture dishes overnight then treated with 1% DMSO, 12.5 μM TMR, GBP, TMR-GBP respectively and monitored by time-lapse live cell microscope. Cells were exposed to indicate wavelength once every 4 hours for 100 ms and continuously for 20 hours. At least 300 cells in five different fields were counted for each experiment using microcopy that captured images under 10× magnification. Mortality rate was evaluated by counting the percentage of dead cells in the whole population. Standard deviations of three independent experiments were indicated as bars.
Time-Lapse Live Cell Imaging
In order to monitor cell morphology and the stability of TMR-GBP, cells were incubated in 35 mm dish or 4 well dish at 37° C. overnight. Replaced the culture medium with CO2-independent medium with supplement of 10% fetal bovine serum (FBS) and 1% penicillin-streptomycin, cells were treated with reagent (TMR, GBP, TMR-GBP) for the time according to the experiment and subjected to time-lapse live cell imaging. Cells were maintained on the microscope stage incubator at 37° C. Multiple-positional time-lapse imaging was performed using an automated Leica DMI6000 inverted microscope equipped with an HCX PL FL 20λ/NA0.4 objective and Andor Luca R EMCCD camera. Images of cells were taken at different interval time and analyzed by MetaMorph software.

Detroit 562 = assay: WST-8 cell viability assay, Detroit 562; assay type: cell-based
Experimental: as §1, §2, §3

H520 = assay: WST-8 cell viability assay, H520; assay type: cell-based
Experimental: as §1, §2, §3

phospho-γH2Ax = assay: Immunofluorescence staining of phospho-γH2Ax (DNA damage); assay type: cell-based, human; settings: Ca922, H2O2 positive control, FIG. 10A
Experimental: Representative images showing DAPI-labelled nucleus (shown in blue) co-stained with phospho-γH2Ax (green). Ca922 cells were treated with 25 μM TMR-GBP for 12 or 24 hours followed by immunofluorescence staining. Foci in the nucleus indicated damaged DNA. Scale bar indicates 10 μm.
At least 20 cells were counted in each category. Bars indicate standard deviations from three independent experiments.
Immunofluorescence Staining
Cells grown on coverslips were washed with 1×PBS and fixed by PTEMF buffer (20 mM PIPES pH 6.8, 0.2% Triton X-100, 10 mM EGTA, 1 mM MgCl2, and 4% formaldehyde) or 4% paraformaldehyde for 10 minutes at room temperature. Then, fixation buffer was replaced with 1×PBST and the cells were washed with 1×PBST for another 10 minutes at room temperature. Coverslips were washed with 1×PBST twice gently and incubated with primary antibodies at room temperature for 1 hour. Next, washed with PBST for three times (2, 2, 5 minutes). Afterwards, coverslips were cultured in Alex Fluor-conjugated secondary antibodies and DAPI at room temperature for 30 minutes, washed three times (2, 2, 5 minutes), rinsed with ddH2O and mounted with mounting medium. Antibodies concentration used in this analysis is 1:1000 dilution. Images were acquired with specific fluorescence wavelength by Leica DMI6000 inverted microscope equipped with HCX PL FL 100λ/NA1.40 objective and EMCCD camera. All images were analyzed by MetaMorph software.

Ca922 cells [3] = assay: Annexin V staining with flow cytometry; assay type: cell-based, human; settings: Ca922, 1% H2O2 positive control, FIG. 6A
Experimental: […] Diluted 10× Binding Buffer to 1× using distilled water. Washed cells once in PBS, then once in 1× Binding Buffer. Resuspended cells in 1× Binding Buffer at 1-5×10^6/mL. Next, added 5 μL of fluorochrome-conjugated Annexin V to 100 μL of the cell suspension. Sample was incubated 10-15 minutes at room temperature. Afterwards, washed cells in 1× Binding Buffer and resuspend in 200 μL of 1× Binding Buffer. Analyzed by flow cytometry within 4 hours, storing at 2-8° C. in the dark.

CN(C)c1ccc2c(-c3ccccc3C(=O)[O-])c3ccc(N(C)C)cc3[o+]c2c1 [TMR, Tetramethylrhodamine, reference compound]
cytotoxicity (cell viability) (Ca922 cells [1]; Ca922 (oral cancer), different concentrations, 48 hours, FIG. 5): neither TMR-GBPR3QW4R nor TMR alone induce cytotoxicity
cytotoxicity (cell viability) (H2170; H2170 (lung cancer), different concentrations, 48 hours, FIG. 5): neither TMR-GBPR3QW4R nor TMR alone induce cytotoxicity
cytotoxicity under light stress (mortality) (Ca922 cells [2]): more sensitive to 532 nm light stress and displayed cytotoxic effects
cytotoxicity (cell viability) (Detroit 562; Detroit 562 (pharynx cancer), different concentrations, 48 hours, FIG. 5): neither TMR-GBPR3QW4R nor TMR alone induce cytotoxicity
cytotoxicity (cell viability) (H520; H520 (lung cancer), different concentrations, 48 hours, FIG. 5): neither TMR-GBPR3QW4R nor TMR alone induce cytotoxicity

TMR-GBPW4R: TMR conjugate of peptide GBPW4R, NYRRRCKNQN (SEQ ID NO. 3) (not fully specified (N-terminus); also: TMR conjugate, site not given here; listed as Homo sapiens)
cytotoxicity (cell viability) (H2170): could induce cytotoxicity
cytotoxicity (cell viability) (Detroit 562): could induce cytotoxicity
cytotoxicity (cell viability) (H520): could induce cytotoxicity

OO [H2O2, reference compound]
phospho-γH2Ax foci in the nucleus (DNA damage) (phospho-γH2Ax): many foci were observed accumulating in the nucleus
apoptosis by Annexin-V-FITC labeling (Ca922 cells [3]): induces apoptosis in Ca922

TMR-GBPR3QW4R: TMR conjugate of peptide GBPR3QW4R, NYQRRCKNQN (SEQ ID NO. 4) (not fully specified (N-terminus); also: TMR conjugate, site not given here; listed as Homo sapiens)
cytotoxicity (cell viability) (Ca922 cells [1]): neither TMR-GBPR3QW4R nor TMR alone induce cytotoxicity
cytotoxicity (cell viability) (H2170): neither TMR-GBPR3QW4R nor TMR alone induce cytotoxicity
cytotoxicity (cell viability) (Detroit 562): neither TMR-GBPR3QW4R nor TMR alone induce cytotoxicity
cytotoxicity (cell viability) (H520): neither TMR-GBPR3QW4R nor TMR alone induce cytotoxicity

O=C(O)CN(CCOCCOCCN(CC(=O)O)CC(=O)O)CC(=O)O [EGTA, ethylene glycol tetraacetic acid, reference compound]
effect on cell viability (Ca922 cells [1]; Ca922, 1 mM EGTA, 50 hours, FIG. 8A): no significant effect on cell viability
